From BigSolDB 2.1

C=C1C[C@]23C[C@H]1CC[C@H]2[C@@]12CC[C@H](O)[C@@](C)(C(=O)O1)[C@H]2[C@@H]3C(=O)O
solubility (mole fraction)
Conditions | in acetone | in acetonitrile | in ethanol | in ethyl acetate | in isopropanol | in methanol | in n-butanol | in water
278.15 K | 0.053 | 0.00391 | 0.000809 | 0.0105 | 0.0691 | 0.0466 | 0.0588 | 9e-06
283.15 K | 0.057 | 0.00457 | 0.000911 | 0.0118 | 0.0745 | 0.051 | 0.0613 | 1.2e-05
288.15 K | 0.0596 | 0.00529 | 0.00107 | 0.0134 | 0.0775 | 0.0559 | 0.0674 | 1.7e-05
293.15 K | 0.0645 | 0.00647 | 0.00118 | 0.0157 | 0.0859 | 0.0637 | 0.0723 | 2.1e-05
298.15 K | 0.0692 | 0.00776 | 0.00133 | 0.0172 | 0.0916 | 0.0705 | 0.0762 | 2.8e-05
303.15 K | 0.0759 | 0.00907 | 0.00159 | 0.0195 | 0.0969 | 0.0743 | 0.0798 | 3.4e-05
308.15 K | 0.0801 | 0.0108 | 0.00187 | 0.0211 | 0.103 | 0.0805 | 0.0836 | 4.4e-05
313.15 K | 0.0862 | 0.0124 | 0.00217 | 0.0239 | 0.11 | 0.0882 | 0.0872 | 5.3e-05
318.15 K | 0.0917 | 0.0135 | 0.00257 | 0.0265 | 0.12 | 0.0933 | 0.0931 | 6.1e-05
323.15 K | 0.0983 | 0.0149 | 0.00273 | 0.0299 | 0.123 | 0.101 | 0.1 | 7.3e-05
328.15 K | 0.106 | 0.0168 | 0.00318 | 0.0325 | 0.131 | 0.11 | 0.109 | 9.2e-05
333.15 K | 0.112 | 0.0188 | 0.00387 | 0.0357 | 0.14 | 0.121 | 0.119 | 0.00012
